Laboratory results as given in patent publication US5229398A, “Aminomethylpiperidine compounds” (Adir et Compagnie, priority 1990, dated 1993).
Counter-ions that a name gives are not always drawn. Like-named read-outs stand apart in the source and are kept apart here.

Key:
5-HT1A receptors [1] = target: T1, 5-HT1A receptors (Rattus norvegicus, UniProt P19327); assay: In vivo test of "tail-flicks" (antagonism of 8-OH-DPAT-induced spontaneous tail movements); set-up: from tissue; host or cells: whole rat in vivo; settings: subcutaneous injection; for ED50: sc, against subcutaneous 8-OH-DPAT, read-out: ED50, the amount which reduces the action of 8-OH-DPAT by 50%
T1 sequence (P19327 1-422): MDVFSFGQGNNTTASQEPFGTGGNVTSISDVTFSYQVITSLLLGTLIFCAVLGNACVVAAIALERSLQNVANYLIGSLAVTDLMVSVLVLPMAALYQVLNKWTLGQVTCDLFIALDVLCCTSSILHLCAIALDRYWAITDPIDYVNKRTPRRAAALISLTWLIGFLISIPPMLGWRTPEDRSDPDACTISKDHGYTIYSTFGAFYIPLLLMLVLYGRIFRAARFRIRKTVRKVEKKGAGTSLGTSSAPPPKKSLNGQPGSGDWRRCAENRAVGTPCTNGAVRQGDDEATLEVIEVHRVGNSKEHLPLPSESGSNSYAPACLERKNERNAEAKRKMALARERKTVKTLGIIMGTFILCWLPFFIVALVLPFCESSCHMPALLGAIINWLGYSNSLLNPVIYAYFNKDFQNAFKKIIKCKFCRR
Excerpt: The potential of the compounds of the invention to act in vivo on the 5-HT1A receptors was brought out following a method perfected by Millan et al. (Neurosci. Lett., 1989, 107, 227-232). […] This model then was used to evaluate the potential of the compounds of the invention administered by subcutaneous injection, to interact with the 5-HT1A receptors in the rat. The ED50, that is the amount which reduces the action of 8-OH-DPAT by 50%, was thus determined.

5-HT1A receptors [2] = target: T1, 5-HT1A receptors; assay: Affinity for 5-HT1A receptors in vitro ([3H]-8-OH-DPAT binding, rat hippocampus membranes); set-up: from tissue; host or cells: hippocampus membranes of male Wistar rats; species or system male Wistar rats
Procedure: The tests were carried out on tissue from the hippocampus of decapitated male Wistar rats. The rats were sacrificed 48 hours before the experiment and the isolated tissues were preserved at -86° C.
In order to prepare the membranes, the tissues were homogenized at 0° C. in 20 volumes of 50 mM Tris HCl buffer solution (pH 7.7, adjusted with 5N HCl at 25° C.), with a Polytron homogenizer for 6 seconds. The whole was then centrifuged (35,000 g for 20 minutes at 4° C.). Homogenization followed by centrifugation was repeated a second time under the same conditions. The pellet thus obtained was suspended for a final time in 20 volumes of the above buffer, incubated for 15 minutes at 37° C., then again centrifuged. […]
The compounds to be tested were put into solution in the incubation buffer. Test solutions were prepared by placing in 12×75 mm glass tubes, 10 μl of the solution of the compounds to be tested, 100 μl of a solution containing […] of [^3 H]-8-OH-DPAT (specific radioactivity 205 Ci/mmol). Non-specific binding was determined with the aid of a solution of 5-hydroxytryptamine (10 μM), and represented 5 to 10% of the final binding. […] Radioactivity was then determined with the aid of external standards.
The pKi values were determined by the CheungPrusoff equation: [formula]

5-HT1A receptors [3] = target: T1, 5-HT1A receptors; set-up: from tissue; host or cells: whole rat in vivo; settings: subcutaneous injection; cited from earlier work
5-HT1A receptors [4] = target: T1, 5-HT1A receptors; set-up: The tests were carried out on tissue from the hippocampus of decapitated male Wistar rats; from tissue; host or cells: hippocampus membranes of male Wistar rats; settings: reference ligand 8-OH-DPAT; cited from earlier work

SMILES: COc1cccc2c1OC(CNCC1CCN(c3nc4ccccc4s3)CC1)CO2 (stereo not drawn) [Example 16, 1-(BENZOTHIAZOL-2-YL)-4-[(8-METHOXY-1,4-BENZODIOXAN-2-YL)-METHYLAMINOMETHYL]PIPERIDINE DIHYDROCHLORIDE]
- ED50 (5-HT1A receptors [1]): 0.31 mg/kg
- properties towards the 5-HT1A receptors (in words) (5-HT1A receptors [1]): antagonist properties
- Ki (5-HT1A receptors [2]): 0.501 nM

SMILES: CCCN(CCC)C1CCc2cccc(O)c2C1 (stereo not drawn) [Example 8-OH-DPAT, 8-hydroxy-2-(dipropylamino)tetraline]
- induction of spontaneous movements of the tail (in words) (5-HT1A receptors [3]): marked spontaneous movements of the tail
- affinity for the 5-HT1A sites of the reference (in words) (5-HT1A receptors [4]): very great affinity
- selectivity for the 5-HT1A sites of the reference (in words) (5-HT1A receptors [4]): great selectivity

SMILES: COc1ccccc1OCCNCC1CCN(c2nc3ccccc3o2)CC1.Cl.Cl [Example 44, 1-(BENZOXAZOL-2-YL)-4-[[2-(2-METHOXYPHENOXY)ETHYL]AMINOMETHYL]PIPERIDINE DIHYDROCHLORIDE]
- ED50 (5-HT1A receptors [1]): 0.31 mg/kg
- properties towards the 5-HT1A receptors (in words) (5-HT1A receptors [1]): antagonist properties
- Ki (5-HT1A receptors [2]; rat hippocampus, [3H]-8-OH-DPAT, 30 minutes at 37° C., pKi by CheungPrusoff equation, read-out: pKi (converted)): 1 nM
